In patent US20230041065A1, “METHODS FOR GENERATING HEMATOPOIETIC STEM CELLS” (The Brigham and Women`s Hospital, Inc., priority 2019, published 2023):
“Also recorded” adds a separate entry of the source.

What was measured:
Dnmt3a = Dnmt3a protein level in nuclear fractions of E11.5 AGM cells; format: cell-based, mouse
Protocol: RNA-sequencing analyses were performed to measure gene expression patterns in mouse AGM treated with cyclic strain or pharmacological modulators. Using computational algorithms, hierarchical clustering was performed of differentially expressed genes as well as measured their overrepresented biological processes and pathways. Gene expression clusters of differentially expressed genes were analyzed and their mean expression level across cell populations compared. Next, Venn comparison of up- and down-genes was constructed to analyze candidate(s) important for cyclic strain- or pharmacological modulator(s)-mediated the endothelial-to-HSC transition. Furthermore, Dnmt3b and Dnmt3a protein expressions were analyzed in nuclear fractions of mouse AGM cells using EqiQuick assay kits. Data are presented as mean±s.d. unless otherwise noted. Statistical analyses were performed by paired or un-paired Student's t-tests. Significance was set at P<0.05.
Nuclear extracts from AGM explants were harvested using an EpiQuik Nuclear Extraction Kit (Epigentek Group Inc.). Dnmt3b and Dnmt3a protein levels were analyzed using a colorimetric EpiQuik Assay Kit (Epigentek Group Inc.), according to the manufacturer's instructions. Concentration of Dnmt3b and Dnmt3a is relative to 1 μg of nuclear extract proteins.

E11.5 AGM cells = assay: Hematopoietic CFU and FACS assays on E11.5 AGM cells; format: cell-based, mouse
Protocol: Pulsating blood vessels like conditions were stimulated in vitro using Flexcell FX-4000 machine. To analyze roles of pharmacological targets in regulating the endothelial-to-HSC transition, mouse embryo-derived AGM or whole mouse embryo were exposed ex vivo with biomechanical stretching, chemicals, or drugs. Next, hematopoietic colony formation assays were performed by incubating mouse AGM-derived cells in StemCell M3434 media for seven days. Serial transplantation of AGM-derived HSCs in lethally irradiated SJL mice were performed. The stem cell frequency upon biomechanical stretching was analyzed using a limiting dilution assay. To characterize properties of AGM-HSC-derived blood cells in primary transplants, percentage chimerism and reconstitution was measured using FACS, globin transcripts were analyzed using quantitative reverse transcriptase-PCR, myeloperoxidase amount was measured using PicoKine ELISA kit, TCR-β rearrangement was analyzed using PCR for TCR-β locus, pre-immune IG detection was analyzed using Thermo-Fisher Mouse Ig Isotyping kit, and delayed-type hypersensitivity was analyzed by injecting sheep RBC (Rockland Immunochemicals) in the footpad of pre-sensitized mice. E11.5 AGM were harvested from C57BL6/J Cd45.2 mouse embryos, and a single cell suspension of a three-embryo equivalent of cells was seeded on each well of a BioFlex six-well culture plate ([…]). We cultured cells overnight with the application of cyclic strain (Flexcell® FX4000TM Tension System) and/or treatment with chemical modulators (2-100 μM Yoda1, 1 μM Nanaomycin, 100 μM Gdcl3, 1 uM GsMT×4, 5-20 μM 4αPDD, 10 uM GSK205). Next, harvested cells were used to perform transplant, fluorescence-activated cell sorting (FACS) analysis, and colony-forming unit (CFU) assays. For CFU assays, cells from AGM explant or ex vivo were plated in MethoCult GF M3434 media (StemCell Technologies). Seven days after seeding, we analyzed their capacity to make granulocyte, erythroid, macrophage, megakaryocyte (GEMM), granulocyte macrophage (GM), granulocyte (G), macrophage (M), and erythroid (E) colonies.

[1] = test system: human PSC (DF19-9-7T)-derived hCD34+ hematopoietic cells; assay: Transplantation of human PSC-derived hCD34+ hematopoietic cells in humanized mice; format: in vivo
human PSCs = assay: FACS analyses of hematopoietic differentiation of human PSCs (embryoid bodies); format: cell-based
Protocol: Embryoid body and hemogenic endothelium differentiation was performed as described in (Sugimura et al. 2017; Ditadi et al. 2015). Briefly, hiPSC colonies were dissociated with 0.05% trypsin for 5 min at 37° C., washed with PBS+2% FBS, and resuspended in StemPro-34 (Invitrogen, 10639-011) supplemented with L-glutamine (2 mM), penicillin/streptomycin ([…]), ascorbic acid (1 mM), human holo-Transferrin ([…], Sigma T0665), monothioglycerol (MTG, 0.4 mM), BMP4 (10 ng/ml), and Y-27632 (10 μM). Five million cells were seeded into 10 cm dishes (Ezsphere, Asahi Glass) for the spheroid formation. On Day 1, bFGF (5 ng/ml) and BMP4 (10 ng/ml) was added to the medium. On Day 2, the media was changed with the StemPro-34 supplemented with SB431542 (6 μM), CHIR99021 (3 μM), bFGF (5 ng/ml), and BMP4 (10 ng/ml). On Day 3, the medium was replaced with StemPro-34 supplemented with VEGF (15 ng/ml) and bFGF (10 ng/ml). On day 6, the medium was changed to StemPro-34 supplemented with bFGF (5 ng/ml), VEGF (15 ng/ml), interleukin (IL)-6 (10 ng/ml), IGF-1 (25 ng/ml), IL-11 (5 ng/ml), SCF (50 ng/ml) and EPO (2IU). The cells were maintained in a 5% CO2, 5% O2 and 95% humidity incubator. All cytokines were purchased from Peprotech.
To isolate the CD34^+ cells, the embryoid bodies (from day 8) were dissociated by 0.05% trypsin, filtered through a 70 μm strainer, CD34^+ cells were isolated by CD34 magnetic bead staining, and subsequently passaged through the LS columns (Miltenyi). A sample from every batch was tested by FACS to validate its purity with the panel. The following antibodies were employed: CD34-PEcy7 (Clone 581; Biolegend), FLK1-PE (CLONE #89106; BD), and 4′,6-diamidino-2-phenylindole (DAPI).
Isolated CD34^+ cells were resuspended in StemPro-34 medium containing Y-27632 (10 μM), TPO (30 ng/ml), IL-3 (10 ng/ml), SCF (50 ng/ml), IL-6 (10 ng/ml), IL-11 (5 ng/ml), IGF-1 (25 ng/ml), VEGF (5 ng/ml), bFGF (5 ng/ml), BMP4 (10 ng/ml), and FLT3 (10 ng/ml) (Ferrel et al 2015). Cells were seeded at a density of 50,000 cells per well onto thin-layer Matrigel-coated 24-well plates. […]

Clc1cccc(Cl)c1CSc1nnc(-c2cnccn2)s1 [Yoda1, 2-[5-[[(2,6-Dichlorophenyl)methyl]thio]-1,3,4-thiadiazol-2-yl]-pyrazine]
Dnmt3a protein expression (Dnmt3a): not Dnmt3a; also recorded: without impacting the expression of Dnmt3a
GEMM formation (E11.5 AGM cells; 25 μM): enhances GEMM formation
hematopoietic colony formation (endothelial-to-hematopoietic transition) (E11.5 AGM cells; E11.5 AGM cells vs. control): stimulates the endothelial-to-hematopoietic transition
percentage of bone marrow reconstitution to human CD33+, CD3+ and CD19+ cells ([1]; primary transplant): stimulates the formation of hCD34+ hematopoietic cells that reconstitute multi-lineage blood
percentage of bone marrow chimerism ([1]; primary transplant, after 8-10 weeks): enhances the formation of engraftable human CD34+ cells; also recorded: enhances the formation of engraftable hCD34+ cells
percentage peripheral blood reconstitution to human CD33+, CD3+ and CD19+ cells ([1]; secondary transplant): stimulates the formation of human LT-HSCs that reconstitute multi-lineage blood upon serial transplantation
percentage of peripheral blood chimerism ([1]; secondary transplant, after 16 weeks): enhances the formation of self-renewing LT-HSCs
improvement in the number of HSCs produced from hPSCs (human PSCs; FIG. 7C): 2 Fold
formation of CD34+CD90+ HSCs (human PSCs; day 8+7 of hematopoietic differentiation): enhances the formation of HSCs from hPSC
formation of hCD43negCD235negCD144+CD34+ HECs (human PSCs; embryoid bodies, day 8, control and PIEZO1-/- PSCs): enhances the formation of hCD43^negCD235^negCD144^+CD34^+ HE cells in control but not in PIEZO1^−/− PSCs; also recorded: enhances the formation of hCD43^negCD235^negCD144^+CD34^+ HECs in control but not in PIEZO1^−/− PSCs
